This data set can be described thus: Fragrance Release Half-life: hydrolysis kinetics of pro-accords monitored by HPLC. The note with it: 10 mL phosphate buffer (NaH2PO4/H3PO4, approximately pH 2.5) admixed with 90 mL dioxane, 30° C. Type of data set: physicochemical. An excerpt: Fragrance Release Half-life
The pro-accords useful in the perfume and fine flagrance compositions of the present invention generally have a delayed release of final fragrance accord in order to achieve the increased fragrance longevity benefits described herein. However, the pro-accords generally also deliver the fragrance accords during a time period useful to the formulator, for example, within a time period desirable to the consumer.
For the purposes of the present invention the pro-accords generally have a "Fragrance Release Half-life" of less than or equal to 12 hours when measured in NaH2 PO4 buffer at pH 2.5 and greater than or equal to 0.1 hour when measured in NaH2 PO4 buffer at pH 5.3. The "Fragrance Release Half-life" is defined herein as follows
Pro-accords deliver their corresponding mixture of fragrance raw materials or fragrance accords according to the equation: […]
wherein the accord which is released may be a binary accord or a multiple fragrance raw material accord.
The rate at which the accord is released is defined by the formula: […]
An example of the procedure used to measure the suitability of a pro-accord for use in the fragrance delivery systems at pH 2.5 is as follows. […] Next 10 mL of the phosphate buffer is admixed with 90 mL of dioxane and the pro-fragrance to be analyzed is added. The hydrolysis kinetics are then monitored by conventional HPLC at 30° C. […]

In the case of `c1ccc(CCOC(OCCc2ccccc2)(OCCc2ccccc2)OCCc2ccccc2)cc1` [tetrakis(phenylethyl) orthocarbonate, Tetrakis(phenylethyl) Orthocarbonate], the “t1/2 (Fragrance Release Half-life)” value came out at 4.8 h.
Regarding `c1ccc(CCOC(OCCc2ccccc2)OCCc2ccccc2)cc1` [tris(phenylethyl) orthoformate, Tris(phenylethyl) Orthoformate], the “t1/2 (Fragrance Release Half-life)” value was determined as 5.9 h.

For the origin of these results see patent publication US6013618A, “Perfumes having odor longevity benefits” (Procter & Gamble Company, priority 1998, dated 2000).
